Source: US20210228734A1, “CONJUGATES COMPRISING A TEMPERATURE-RESPONSIVE POLYMER AND A LIGAND CAPABLE OF BINDING ERGOSTEROL” (L V PRASAD EYE INSTITUTE, priority 2018, published 2021)

Legend:
C. albicans ATCC90028 = assay: Minimal inhibitory concentration (MIC), C. albicans ATCC90028; type: cell-based
Description: (§1) C. albicans cells, laboratory strain SC5314 or ATCC90028, were cultured on solid BHI (Oxoid) medium at 37° C. for 24 hours and stored at 4° C. for up to one month. Prior to experiments, a colony of C. albicans was sub-cultured into liquid BHI medium overnight at 37° C.
(§2) C. albicans cells, laboratory strain SC5314 or ATCC90028, were cultured on solid BHI (Oxoid) medium at 37° C. for 24 hours and stored at 4° C. for up to one month. Prior to experiments, a colony of C. albicans was sub-cultured into liquid BHI medium overnight at 37° C. Overnight cultures of C. albicans were adjusted to an optical density at 600 nm of 0.1 and incubated with Amphotericin polymers, which were serially diluted 1:2 from 2500-2.44 μg/ml, for 16 hours in a 96 well plate. The concentration of polymer at which there was no visible growth was determined to be the MIC. C. albicans (Robin) ATCC200955, C. tropicalis ATCC200956, A. flavus ATCC16883 and F. keratoplasticum ATCC36031 were similarly cultured on solid Sabrauds (Oxoid) medium at 37° C. for 24 hours and stored at 4° C. for up to one month. Prior to experiments, colonies were sub-cultured into liquid Sabrauds medium overnight at 37° C. All liquid cultures were static apart from A. flavus which was incubated shaking at 100 rpm.

[1] = literature range; cited from earlier work
[2] = system: rabbit limbal epithelial cells; assay: Rabbit limbal epithelial cell viability (Alamar Blue); settings: p<0.01
Description: Tissue was immersed in 2.5 mg ml^−1 (w/v) dispase II solution in DMEM for 1 hour at 37° C. The limbal rims were subsequently scraped gently using forceps to remove the epithelial cells. The dispase-cell suspension was centrifuged at 200 g for 5 minutes and re-suspended in culture medium containing DMEM: Ham's F12 (1:1) supplemented with 10% foetal calf serum, 100 U ml^−1 penicillin and 100 U ml^−1 streptomycin, 2.5 μg ml^−1 Amp−B, 5 μg ml^−1 insulin and 10 ng ml^−1 epidermal growth factor. Cells were cultured with irradiated 3T3-mouse fibroblasts at a cell density of 2.4×10^4 cells cm^−2 in culture medium. Cells were not used beyond passage 3. For experiments, cells were seeded into 24 well-plates at 5×10^4 cells per well and cultured for 24 hours.
Prior to determining the viability of rabbit limbal epithelial cells, cells were washed 3× with phosphate-buffered saline (PBS, 0.01M, pH 7.4) to remove residual antimicrobials. […] Epithelial cell/cornea viability was determined using Alamar Blue reagent (5 μg ml^−1) dissolved in PBS. Cells/corneas were incubated with Alamar Blue for 30 minutes and the fluorescence of the solution determined at 570 nm excitation and 585 nm emission (Infinite 200, Tecan). Data for each polymer is presented as percentage viability relative to an untreated control. […]

C. albicans SC5314 = assay: Minimal inhibitory concentration (MIC), C. albicans SC5314; type: cell-based
Description: as §1, §2

[3] = system: Fusarium keratoplasticum ATCC36031; assay: Minimal inhibitory concentration (MIC), F. keratoplasticum ATCC36031; type: cell-based; settings: F. keratoplasticum ATCC 36031
Description: as §2

C. tropicalis ATCC200956 = assay: Minimal inhibitory concentration (MIC), C. tropicalis ATCC200956; type: cell-based; settings: C. tropicalis ATCC200956 (Amp-B non-sensitive); Table 3b
Description: as §2, with “Overnight cultures of C. albicans were adjusted to an optical density at 600 nm of 0.1 and incubated with Amphotericin polymers, which were serially diluted 1:2 from 2500-2.44 μg/ml, for 16 hours in a 96 well plate.” left out

[4] = system: Aspergillus flavus ATCC16883; assay: Minimal inhibitory concentration (MIC), A. flavus ATCC16883; type: cell-based; settings: A. flavus ATCC 16883
Description: as §2

[5] = system: C. albicans (Robin) ATCC200955; assay: Minimal inhibitory concentration (MIC), C. albicans ATCC200955; type: cell-based; settings: C. albicans ATCC200955 (Amp-B non-sensitive); Table 3b
Description: as §2

human donor corneas = settings: 2.5 ma ml^−1, Alamar Blue, p<0.01
Description: Epithelial cell/cornea viability was determined using Alamar Blue reagent (5 μg ml^−1) dissolved in PBS. Cells/corneas were incubated with Alamar Blue for 30 minutes and the fluorescence of the solution determined at 570 nm excitation and 585 nm emission (Infinite 200, Tecan). Data for each polymer is presented as percentage viability relative to an untreated control. Each assay was performed in triplicate and data represents the mean±SD from three independent experiments.
The examination of the cytotoxicity was further examined on ex vivo human corneas.

[6] = physiological pH; stated as well known; cited from earlier work
[7] = from weight based MIC and molar density

SMILES: C[C@@H]1[C@H](O)[C@@H](C)/C=C/C=C/C=C/C=C/C=C/C=C/C=C/[C@H](O[C@@H]2O[C@H](C)[C@@H](O)[C@H](N)[C@@H]2O)C[C@@H]2O[C@](O)(C[C@@H](O)C[C@@H](O)[C@H](O)CC[C@@H](O)C[C@@H](O)CC(=O)O[C@H]1C)C[C@H](O)[C@H]2C(=O)O [Amp-B, amphotericin B]
- Weight based MIC (C. albicans ATCC90028; Table 3b): 0.5 µg·mL
- Molar MIC (C. albicans ATCC90028; [7]): 4800 µM
- MIC for Amp-B [1]: 0.625 to 4 µg/mL
- Metabolic activity of cells compared with the cell only control ([2]; 100 μg ml^−1, 24 hours): 42.8±13.9%
- Decrease in epithelial cell viability relative to a cell only control ([2]; 1 mg ml^−1, 24 hours): approximately 91.7%
- Weight based MIC (C. albicans SC5314; Table 3b): 0.4 µg·mL
- Molar MIC (C. albicans SC5314; from weight based MIC and molar density of Amp-B groups): 500 µM
- Weight based MIC ([3]; Table 3b): 0.2 µg·mL
- Molar MIC [3, 7]: 250 µM
- Weight based MIC (C. tropicalis ATCC200956): >2500 µg·mL
- Weight based MIC ([4]; Table 3b): 1.5 µg·mL
- Molar MIC [4, 7]: 1800 µM
- Weight based MIC [5]: >2500 µg·mL
- Loss of corneal viability (human donor corneas): approximately 95%
- Solubility in water and saline solution [6]: insoluble
